# Experiments:
# Assay in all cases: radiometric filter-binding kinase assay, Kinase HotSpot
# Conditions in all cases: compound 0.5 µM; ATP 10 µM
# DAPK3 (human) = DAPK3 (human) (UniProt O43293)
# NTRK1 (human) = NTRK1 (human) (UniProt P04629)
# CHUK (human) = CHUK (human) (UniProt O15111)
# PAK3 (human) = PAK3 (human) (UniProt O75914)
# IRAK1 (human) = IRAK1 (human) (UniProt P51617)
# PDGFRB (human) = PDGFRB (human) (UniProt P09619)
# CAMK2B (human) = CAMK2B (human) (UniProt Q13554)
# STK25 (human) = STK25 (human) (UniProt O00506)
# MLTK (human) = MLTK (human) (UniProt Q9NYL2)
# PRKD2 (human) = PRKD2 (human) (UniProt Q9BZL6)
# MERTK (human) = MERTK (human) (UniProt Q12866)
# EGFR (human) = EGFR (human) (UniProt P00533)
# NLK (human) = NLK (human) (UniProt Q9UBE8)
# INSRR (human) = INSRR (human) (UniProt P14616)
# GSK3A (human) = GSK3A (human) (UniProt P49840)
# Sequence of GSK3A (human) (P49840 whole entry, looked up): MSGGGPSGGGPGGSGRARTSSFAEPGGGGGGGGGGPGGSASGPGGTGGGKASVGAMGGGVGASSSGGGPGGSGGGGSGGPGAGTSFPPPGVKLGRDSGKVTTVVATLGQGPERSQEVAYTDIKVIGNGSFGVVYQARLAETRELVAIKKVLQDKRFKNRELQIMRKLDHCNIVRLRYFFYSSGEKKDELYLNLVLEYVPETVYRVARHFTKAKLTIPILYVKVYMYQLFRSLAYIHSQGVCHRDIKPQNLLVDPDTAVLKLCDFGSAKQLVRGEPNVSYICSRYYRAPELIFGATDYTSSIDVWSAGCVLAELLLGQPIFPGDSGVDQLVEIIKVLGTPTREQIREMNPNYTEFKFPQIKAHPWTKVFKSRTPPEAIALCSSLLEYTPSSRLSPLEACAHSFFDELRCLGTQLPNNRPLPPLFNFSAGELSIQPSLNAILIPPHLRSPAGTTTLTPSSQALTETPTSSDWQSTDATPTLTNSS
# GRK6 (human) = GRK6 (human) (UniProt P43250)
# PLK3 (human) = PLK3 (human) (UniProt Q9H4B4)
# MAP3K2 (human) = MAP3K2 (human) (UniProt Q9Y2U5)
# RPS6KA4 KD2 (human) = RPS6KA4 KD2 (human) (UniProt O75676)
# Sequence of RPS6KA4 KD2 (human) (O75676 whole entry, looked up): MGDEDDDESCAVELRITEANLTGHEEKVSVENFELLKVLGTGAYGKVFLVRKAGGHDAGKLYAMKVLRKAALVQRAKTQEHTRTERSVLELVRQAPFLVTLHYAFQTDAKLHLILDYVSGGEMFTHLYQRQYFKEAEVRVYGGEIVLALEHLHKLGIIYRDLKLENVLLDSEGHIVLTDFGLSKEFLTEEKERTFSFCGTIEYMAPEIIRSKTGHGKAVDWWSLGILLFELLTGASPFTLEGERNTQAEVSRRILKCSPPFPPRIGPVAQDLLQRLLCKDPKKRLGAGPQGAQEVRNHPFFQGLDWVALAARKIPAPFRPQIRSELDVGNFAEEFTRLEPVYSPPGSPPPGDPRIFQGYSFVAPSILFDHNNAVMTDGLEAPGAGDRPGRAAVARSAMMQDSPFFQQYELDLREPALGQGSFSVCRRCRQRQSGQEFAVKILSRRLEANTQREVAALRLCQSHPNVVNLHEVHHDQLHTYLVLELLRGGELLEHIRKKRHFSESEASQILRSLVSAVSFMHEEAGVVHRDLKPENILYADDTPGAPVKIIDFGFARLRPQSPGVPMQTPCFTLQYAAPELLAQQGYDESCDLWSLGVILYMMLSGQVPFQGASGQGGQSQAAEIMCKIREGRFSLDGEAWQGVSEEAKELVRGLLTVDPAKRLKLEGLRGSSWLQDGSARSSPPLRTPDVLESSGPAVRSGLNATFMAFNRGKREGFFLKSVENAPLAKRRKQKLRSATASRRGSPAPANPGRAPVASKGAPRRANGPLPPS
# EPHA2 (human) = EPHA2 (human) (UniProt P29317)
# CSNK1E (human) = CSNK1E (human) (UniProt P49674)
# SRPK1 (human) = SRPK1 (human) (UniProt Q96SB4)
# NEK1 (human) = NEK1 (human) (UniProt Q96PY6)
# MYLK2 (human) = MYLK2 (human) (UniProt Q9H1R3)
# Sequence of MYLK2 (human) (Q9H1R3 whole entry, looked up): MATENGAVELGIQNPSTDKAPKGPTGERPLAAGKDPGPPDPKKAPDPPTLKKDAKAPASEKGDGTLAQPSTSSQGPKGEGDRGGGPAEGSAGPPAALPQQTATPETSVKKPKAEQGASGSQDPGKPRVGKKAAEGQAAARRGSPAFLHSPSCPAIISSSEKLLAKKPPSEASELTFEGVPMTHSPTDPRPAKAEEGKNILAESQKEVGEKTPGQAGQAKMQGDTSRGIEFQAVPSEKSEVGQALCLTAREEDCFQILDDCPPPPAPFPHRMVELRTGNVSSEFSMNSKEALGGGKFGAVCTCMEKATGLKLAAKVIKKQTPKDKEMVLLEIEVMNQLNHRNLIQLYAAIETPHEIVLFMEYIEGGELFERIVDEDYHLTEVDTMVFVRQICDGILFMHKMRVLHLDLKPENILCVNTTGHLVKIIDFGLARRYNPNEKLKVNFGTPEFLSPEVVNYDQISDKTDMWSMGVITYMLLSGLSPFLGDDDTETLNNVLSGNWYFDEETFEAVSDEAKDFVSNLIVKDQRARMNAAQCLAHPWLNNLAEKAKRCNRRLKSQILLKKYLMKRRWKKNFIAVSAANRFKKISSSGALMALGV
# PRKCG (human) = PRKCG (human) (UniProt P05129)
# PTK2 (human) = PTK2 (human) (UniProt Q05397)
# MAP3K7 TAB1 (human) = MAP3K7 TAB1 (human) (UniProt O43318+Q15750)
# Sequence of MAP3K7 TAB1 (human) (O43318 whole entry, looked up): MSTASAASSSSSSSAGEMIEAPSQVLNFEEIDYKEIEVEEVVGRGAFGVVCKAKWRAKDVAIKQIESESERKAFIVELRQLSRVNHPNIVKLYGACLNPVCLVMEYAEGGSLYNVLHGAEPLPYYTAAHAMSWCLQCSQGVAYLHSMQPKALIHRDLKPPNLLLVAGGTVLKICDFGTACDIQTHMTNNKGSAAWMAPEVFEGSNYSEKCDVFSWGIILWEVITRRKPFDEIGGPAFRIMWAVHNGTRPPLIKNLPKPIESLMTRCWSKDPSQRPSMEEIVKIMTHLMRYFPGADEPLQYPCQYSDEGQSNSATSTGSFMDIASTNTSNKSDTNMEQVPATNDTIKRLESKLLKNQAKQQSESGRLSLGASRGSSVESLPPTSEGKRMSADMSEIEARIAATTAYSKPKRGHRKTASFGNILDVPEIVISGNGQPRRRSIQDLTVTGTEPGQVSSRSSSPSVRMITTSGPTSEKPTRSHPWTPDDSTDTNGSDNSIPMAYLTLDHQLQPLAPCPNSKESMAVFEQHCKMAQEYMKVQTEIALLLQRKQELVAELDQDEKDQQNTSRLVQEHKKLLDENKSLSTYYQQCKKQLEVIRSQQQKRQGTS
# Sequence of MAP3K7 TAB1 (human) (Q15750 whole entry, looked up): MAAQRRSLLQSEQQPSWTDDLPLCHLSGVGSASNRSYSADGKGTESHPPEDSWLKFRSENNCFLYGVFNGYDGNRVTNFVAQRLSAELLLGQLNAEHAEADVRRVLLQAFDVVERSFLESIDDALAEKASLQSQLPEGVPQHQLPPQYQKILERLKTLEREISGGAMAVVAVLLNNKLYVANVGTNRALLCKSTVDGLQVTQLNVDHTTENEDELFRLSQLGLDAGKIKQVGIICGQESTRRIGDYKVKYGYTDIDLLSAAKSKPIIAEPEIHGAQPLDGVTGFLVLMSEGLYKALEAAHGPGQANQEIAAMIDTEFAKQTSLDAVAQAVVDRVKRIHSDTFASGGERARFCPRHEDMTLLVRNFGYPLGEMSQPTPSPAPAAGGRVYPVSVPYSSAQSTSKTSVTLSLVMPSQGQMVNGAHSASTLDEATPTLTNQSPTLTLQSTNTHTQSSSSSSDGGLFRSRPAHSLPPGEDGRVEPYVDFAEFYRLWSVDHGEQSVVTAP
# MAPK13 (human) = MAPK13 (human) (UniProt O15264)
# CAMKK2 (human) = CAMKK2 (human) (UniProt Q96RR4)
# ERBB2 (human) = ERBB2 (human) (UniProt P04626)
# CSNK1G1 (human) = CSNK1G1 (human) (UniProt Q9HCP0)
# SRPK3 (human) = SRPK3 (human) (UniProt Q9UPE1)
# STK4 (human) = STK4 (human) (UniProt Q13043)
# Sequence of STK4 (human) (Q13043 whole entry, looked up): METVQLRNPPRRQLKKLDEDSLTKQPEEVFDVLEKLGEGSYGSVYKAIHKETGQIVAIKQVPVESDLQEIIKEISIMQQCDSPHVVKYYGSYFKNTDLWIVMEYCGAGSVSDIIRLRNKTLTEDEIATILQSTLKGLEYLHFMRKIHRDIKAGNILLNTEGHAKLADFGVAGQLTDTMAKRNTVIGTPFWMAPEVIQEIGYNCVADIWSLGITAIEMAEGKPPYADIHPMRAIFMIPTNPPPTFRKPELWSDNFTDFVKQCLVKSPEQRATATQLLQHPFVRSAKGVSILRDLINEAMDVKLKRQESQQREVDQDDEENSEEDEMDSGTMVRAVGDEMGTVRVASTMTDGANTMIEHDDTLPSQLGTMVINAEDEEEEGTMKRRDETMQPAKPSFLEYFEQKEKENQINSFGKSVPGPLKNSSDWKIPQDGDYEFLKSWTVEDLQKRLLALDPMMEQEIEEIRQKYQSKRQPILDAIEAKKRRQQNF
# PAK6 (human) = PAK6 (human) (UniProt Q9NQU5)
# FER (human) = FER (human) (UniProt P16591)
# TSSK1B (human) = TSSK1B (human) (UniProt Q9BXA7)
# RPS6KA6 KD1 KD2 (human) = RPS6KA6 KD1 KD2 (human) (UniProt Q9UK32)
# [1] = system: MAP2K6 (human), P52564 [S207E/T211E]
# PTK2B (human) = PTK2B (human) (UniProt Q14289)
# STK33 (human) = STK33 (human) (UniProt Q9BYT3)
# ACVRL1 (human) = ACVRL1 (human) (UniProt P37023)
# EPHB2 (human) = EPHB2 (human) (UniProt P29323)
# Sequence of CAMK2B (human) (Q13554 whole entry, looked up): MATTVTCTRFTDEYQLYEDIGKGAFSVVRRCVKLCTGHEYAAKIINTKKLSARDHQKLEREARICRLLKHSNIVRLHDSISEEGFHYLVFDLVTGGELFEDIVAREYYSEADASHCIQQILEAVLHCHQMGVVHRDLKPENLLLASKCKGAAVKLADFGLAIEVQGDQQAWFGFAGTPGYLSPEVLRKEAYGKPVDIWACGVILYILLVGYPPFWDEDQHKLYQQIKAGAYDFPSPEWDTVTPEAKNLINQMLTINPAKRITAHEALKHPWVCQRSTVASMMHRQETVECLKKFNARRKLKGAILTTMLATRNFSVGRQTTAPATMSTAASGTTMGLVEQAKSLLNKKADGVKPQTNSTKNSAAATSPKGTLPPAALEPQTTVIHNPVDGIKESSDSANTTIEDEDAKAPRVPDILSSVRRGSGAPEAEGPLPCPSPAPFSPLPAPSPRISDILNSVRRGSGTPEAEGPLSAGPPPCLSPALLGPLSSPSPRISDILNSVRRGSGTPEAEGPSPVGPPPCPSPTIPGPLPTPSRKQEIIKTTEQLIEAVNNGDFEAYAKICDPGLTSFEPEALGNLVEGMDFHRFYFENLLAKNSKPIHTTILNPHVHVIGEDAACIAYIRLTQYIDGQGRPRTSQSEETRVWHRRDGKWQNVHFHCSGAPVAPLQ
structure (smiles),measurement,setting,value
COc1cc2ncnc(Nc3ccc(OCc4ccccc4)cc3)c2cc1OC,residual activity,DAPK3 (human),99.2%
same,residual activity,NTRK1 (human),97.1%
same,residual activity,CHUK (human),95.1%
same,residual activity,PAK3 (human),97.7%
same,residual activity,IRAK1 (human),97.4%
same,residual activity,PDGFRB (human),93%
same,residual activity,CAMK2B (human),105%
same,residual activity,STK25 (human),93.4%
same,residual activity,MLTK (human),96.2%
same,residual activity,PRKD2 (human),101%
same,residual activity,MERTK (human),19.5%
same,residual activity,EGFR (human),21.3%
same,residual activity,NLK (human),96.5%
same,residual activity,INSRR (human),99.9%
same,residual activity,GSK3A (human),104%
same,residual activity,GRK6 (human),104%
same,residual activity,PLK3 (human),98%
same,residual activity,MAP3K2 (human),113%
same,residual activity,RPS6KA4 KD2 (human),105%
same,residual activity,EPHA2 (human),106%
same,residual activity,CSNK1E (human),98.4%
same,residual activity,SRPK1 (human),105%
same,residual activity,NEK1 (human),104%
same,residual activity,MYLK2 (human),97.5%
same,residual activity,PRKCG (human),98.5%
same,residual activity,PTK2 (human),105%
same,residual activity,MAP3K7 TAB1 (human),101%
same,residual activity,MAPK13 (human),103%
same,residual activity,CAMKK2 (human),99.7%
same,residual activity,ERBB2 (human),42.6%
same,residual activity,CSNK1G1 (human),90.6%
same,residual activity,SRPK3 (human),92.8%
same,residual activity,STK4 (human),101%
same,residual activity,PAK6 (human),95.4%
same,residual activity,FER (human),90.8%
same,residual activity,TSSK1B (human),106%
same,residual activity,RPS6KA6 KD1 KD2 (human),95.9%
same,residual activity,[1],109%
same,residual activity,PTK2B (human),99.8%
same,residual activity,STK33 (human),109%
same,residual activity,ACVRL1 (human),102%
same,residual activity,EPHB2 (human),93.9%
CN(C)c1ccc(/C=C2\C(=O)Nc3ccccc32)cc1,residual activity,DAPK3 (human),101%
same,residual activity,NTRK1 (human),96.6%
same,residual activity,CHUK (human),93.4%
same,residual activity,PAK3 (human),99%
same,residual activity,IRAK1 (human),102%
same,residual activity,PDGFRB (human),85.8%
same,residual activity,CAMK2B (human),108%
same,residual activity,STK25 (human),90.2%
same,residual activity,MLTK (human),96.5%
same,residual activity,PRKD2 (human),95.2%
same,residual activity,MERTK (human),92.7%
same,residual activity,EGFR (human),92.1%
same,residual activity,NLK (human),102%
same,residual activity,INSRR (human),94.5%
same,residual activity,GSK3A (human),104%
same,residual activity,GRK6 (human),102%
same,residual activity,PLK3 (human),97%
same,residual activity,MAP3K2 (human),99.8%
same,residual activity,RPS6KA4 KD2 (human),95.2%
same,residual activity,EPHA2 (human),107%
same,residual activity,CSNK1E (human),57.2%
same,residual activity,SRPK1 (human),95.4%
same,residual activity,NEK1 (human),112%
same,residual activity,MYLK2 (human),82.6%
same,residual activity,PRKCG (human),96.8%
same,residual activity,PTK2 (human),104%
same,residual activity,MAP3K7 TAB1 (human),100%
same,residual activity,MAPK13 (human),97.1%
same,residual activity,CAMKK2 (human),100%
same,residual activity,ERBB2 (human),91%
same,residual activity,CSNK1G1 (human),93%
same,residual activity,SRPK3 (human),98.7%
same,residual activity,STK4 (human),93.2%
same,residual activity,PAK6 (human),96.9%
same,residual activity,FER (human),94.5%
same,residual activity,TSSK1B (human),102%
same,residual activity,RPS6KA6 KD1 KD2 (human),93.9%
same,residual activity,[1],94.7%
same,residual activity,PTK2B (human),94.5%
same,residual activity,STK33 (human),99.8%
same,residual activity,ACVRL1 (human),104%
same,residual activity,EPHB2 (human),86.5%
Cc1nc(-c2ccccc2)c(-c2ccncc2)o1,residual activity,DAPK3 (human),101%
same,residual activity,NTRK1 (human),94.3%
same,residual activity,CHUK (human),105%
same,residual activity,PAK3 (human),100%
same,residual activity,IRAK1 (human),124%
same,residual activity,PDGFRB (human),109%
same,residual activity,CAMK2B (human),95.9%
same,residual activity,STK25 (human),104%
same,residual activity,MLTK (human),89%
same,residual activity,PRKD2 (human),97.7%
same,residual activity,MERTK (human),85.6%
same,residual activity,EGFR (human),89.4%
same,residual activity,NLK (human),79.4%
same,residual activity,INSRR (human),101%
same,residual activity,GSK3A (human),112%
same,residual activity,GRK6 (human),105%
same,residual activity,PLK3 (human),95.4%
same,residual activity,MAP3K2 (human),102%
same,residual activity,RPS6KA4 KD2 (human),93.7%
same,residual activity,EPHA2 (human),104%
same,residual activity,CSNK1E (human),69.9%
same,residual activity,SRPK1 (human),101%
same,residual activity,NEK1 (human),103%
same,residual activity,MYLK2 (human),100%
same,residual activity,PRKCG (human),101%
same,residual activity,PTK2 (human),106%
same,residual activity,MAP3K7 TAB1 (human),93.6%
same,residual activity,MAPK13 (human),114%
same,residual activity,CAMKK2 (human),105%
same,residual activity,ERBB2 (human),105%
same,residual activity,CSNK1G1 (human),91.1%
same,residual activity,SRPK3 (human),103%
same,residual activity,STK4 (human),104%
same,residual activity,PAK6 (human),103%
same,residual activity,FER (human),84.9%
same,residual activity,TSSK1B (human),108%
same,residual activity,RPS6KA6 KD1 KD2 (human),115%
same,residual activity,[1],99.3%
same,residual activity,PTK2B (human),100%
same,residual activity,STK33 (human),99.3%
same,residual activity,ACVRL1 (human),95.9%
same,residual activity,EPHB2 (human),99.8%
O=C(c1cc2cc(O)ccc2[nH]1)c1cc2cc(O)ccc2[nH]1,residual activity,DAPK3 (human),104%
same,residual activity,NTRK1 (human),57.2%
same,residual activity,CHUK (human),103%
same,residual activity,PAK3 (human),99.2%
same,residual activity,IRAK1 (human),98.1%
same,residual activity,PDGFRB (human),41.7%
same,residual activity,CAMK2B (human),93.4%
same,residual activity,STK25 (human),105%
same,residual activity,MLTK (human),34.3%
same,residual activity,PRKD2 (human),71.7%
same,residual activity,MERTK (human),81.8%
same,residual activity,EGFR (human),97.6%
same,residual activity,NLK (human),83.2%
same,residual activity,INSRR (human),97.1%
same,residual activity,GSK3A (human),75.7%
same,residual activity,GRK6 (human),102%
same,residual activity,PLK3 (human),101%
same,residual activity,MAP3K2 (human),102%
same,residual activity,RPS6KA4 KD2 (human),81.3%
same,residual activity,EPHA2 (human),101%
same,residual activity,CSNK1E (human),88.4%
same,residual activity,SRPK1 (human),92.2%
same,residual activity,NEK1 (human),93.4%
same,residual activity,MYLK2 (human),21.1%
same,residual activity,PRKCG (human),85.1%
same,residual activity,PTK2 (human),109%
same,residual activity,MAP3K7 TAB1 (human),79.5%
same,residual activity,MAPK13 (human),108%
same,residual activity,CAMKK2 (human),84.2%
same,residual activity,ERBB2 (human),113%
same,residual activity,CSNK1G1 (human),93.1%
same,residual activity,SRPK3 (human),99.4%
same,residual activity,STK4 (human),33.7%
same,residual activity,PAK6 (human),74.4%
same,residual activity,FER (human),86.6%
same,residual activity,TSSK1B (human),96.4%
same,residual activity,RPS6KA6 KD1 KD2 (human),26.7%
same,residual activity,[1],93.6%
same,residual activity,PTK2B (human),85.5%
same,residual activity,STK33 (human),77.5%
same,residual activity,ACVRL1 (human),98.4%
same,residual activity,EPHB2 (human),76.7%

# Source: the kinase profiling compilation of Christmann-Franck et al. (2016)
